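1) Cells in 96-well plates. 2) Compound, 48 h, 5 concentrations. 3) Linear interpolation between surrounding doses. 4) Unreached endpoint = highest concentration. TGI is the concentration that stops growth completely.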
Experiments:
Assay in all cases: NCI tumour cell line growth inhibition, 48 h
HCT-116 colon = tested on: HCT-116 colon
OVCAR-5 ovarian = tested on: OVCAR-5 ovarian
CAKI-1 renal = tested on: CAKI-1 renal
MOLT-4 leukemia = tested on: MOLT-4 leukemia
A549 NSCLC = tested on: A549 NSCLC
HOP-62 NSCLC = tested on: HOP-62 NSCLC
DMS 273 small cell lung = tested on: DMS 273 small cell lung
DMS 114 small cell lung = tested on: DMS 114 small cell lung
CCRF-CEM leukemia = tested on: CCRF-CEM leukemia
HCT-15 colon = tested on: HCT-15 colon
HT29 colon = tested on: HT29 colon
K-562 leukemia = tested on: K-562 leukemia
HL-60(TB) leukemia = tested on: HL-60(TB) leukemia
SF-295 CNS = tested on: SF-295 CNS
NCI-H460 lung = tested on: NCI-H460 lung
DLD-1 colon = tested on: DLD-1 colon
OVCAR-4 ovarian = tested on: OVCAR-4 ovarian
XF 498 CNS = tested on: XF 498 CNS
UACC-257 melanoma = tested on: UACC-257 melanoma
SF-539 CNS = tested on: SF-539 CNS
MCF7 breast = tested on: MCF7 breast
SW-620 colon = tested on: SW-620 colon
SNB-78 CNS = tested on: SNB-78 CNS
EKVX NSCLC = tested on: EKVX NSCLC
M19-MEL melanoma = tested on: M19-MEL melanoma
P388 leukemia = tested on: P388 leukemia
SNB-19 CNS = tested on: SNB-19 CNS
RPMI-8226 leukemia = tested on: RPMI-8226 leukemia
SF-268 CNS = tested on: SF-268 CNS
HOP-92 NSCLC = tested on: HOP-92 NSCLC
IGROV1 ovarian = tested on: IGROV1 ovarian
HCC-2998 colon = tested on: HCC-2998 colon
LOX IMVI melanoma = tested on: LOX IMVI melanoma
COLO 205 colon = tested on: COLO 205 colon
SN12C renal = tested on: SN12C renal
SK-MEL-2 melanoma = tested on: SK-MEL-2 melanoma
HOP-18 NSCLC = tested on: HOP-18 NSCLC
KM20L2 colon = tested on: KM20L2 colon
SK-MEL-28 melanoma = tested on: SK-MEL-28 melanoma
UO-31 renal = tested on: UO-31 renal
UACC-62 melanoma = tested on: UACC-62 melanoma
P388/ADR leukemia = tested on: P388/ADR leukemia
SK-OV-3 ovarian = tested on: SK-OV-3 ovarian
NCI/ADR-RES ovarian = tested on: NCI/ADR-RES ovarian
OVCAR-3 ovarian = tested on: OVCAR-3 ovarian
A498 renal = tested on: A498 renal
NCI-H226 lung = tested on: NCI-H226 lung
NCI-H23 lung = tested on: NCI-H23 lung
KM12 colon = tested on: KM12 colon
SK-MEL-5 melanoma = tested on: SK-MEL-5 melanoma
NCI-H522 lung = tested on: NCI-H522 lung
RXF 393 renal = tested on: RXF 393 renal
U251 CNS = tested on: U251 CNS
SN12K1 renal = tested on: SN12K1 renal
OVCAR-8 ovarian = tested on: OVCAR-8 ovarian
MALME-3M melanoma = tested on: MALME-3M melanoma
SNB-75 CNS = tested on: SNB-75 CNS
ACHN renal = tested on: ACHN renal
RXF-631 renal = tested on: RXF-631 renal
TK-10 renal = tested on: TK-10 renal
LXFL 529 NSCLC = tested on: LXFL 529 NSCLC
M14 melanoma = tested on: M14 melanoma
786-0 renal = tested on: 786-0 renal
SR leukemia = tested on: SR leukemia

## CC1(CO)C(O)CCC2(C)C1C(O)CC1CC3CC12CCC3(O)CO (stereo not given)
HCT-116 colon
  TGI: > 225 µM
OVCAR-5 ovarian
  TGI: > 225 µM
CAKI-1 renal
  TGI: > 225 µM
MOLT-4 leukemia
  TGI: > 141 µM
A549 NSCLC
  TGI: > 225 µM
HOP-62 NSCLC
  TGI: > 225 µM
DMS 273 small cell lung
  TGI: > 199 µM
DMS 114 small cell lung
  TGI: > 225 µM
CCRF-CEM leukemia
  TGI: > 225 µM
HCT-15 colon
  TGI: > 225 µM
HT29 colon
  TGI: > 225 µM
K-562 leukemia
  TGI: > 225 µM
HL-60(TB) leukemia
  TGI: > 225 µM
SF-295 CNS
  TGI: > 104 µM
NCI-H460 lung
  TGI: > 225 µM
DLD-1 colon
  TGI: > 225 µM
OVCAR-4 ovarian
  TGI: > 225 µM
XF 498 CNS
  TGI: > 225 µM
UACC-257 melanoma
  TGI: > 225 µM
SF-539 CNS
  TGI: > 225 µM
MCF7 breast
  TGI: > 225 µM
SW-620 colon
  TGI: > 225 µM
SNB-78 CNS
  TGI: > 225 µM
EKVX NSCLC
  TGI: > 225 µM
M19-MEL melanoma
  TGI: > 153 µM
P388 leukemia
  TGI: > 22.5 µM
SNB-19 CNS
  TGI: > 225 µM
RPMI-8226 leukemia
  TGI: > 196 µM
SF-268 CNS
  TGI: > 225 µM
HOP-92 NSCLC
  TGI: > 225 µM
IGROV1 ovarian
  TGI: > 225 µM
HCC-2998 colon
  TGI: > 225 µM
LOX IMVI melanoma
  TGI: > 225 µM
COLO 205 colon
  TGI: > 225 µM
SN12C renal
  TGI: > 225 µM
SK-MEL-2 melanoma
  TGI: > 225 µM
HOP-18 NSCLC
  TGI: > 225 µM
KM20L2 colon
  TGI: > 225 µM
SK-MEL-28 melanoma
  TGI: > 225 µM
UO-31 renal
  TGI: > 225 µM
UACC-62 melanoma
  TGI: > 225 µM
P388/ADR leukemia
  TGI: > 225 µM
SK-OV-3 ovarian
  TGI: > 225 µM
NCI/ADR-RES ovarian
  TGI: > 225 µM
OVCAR-3 ovarian
  TGI: > 225 µM
A498 renal
  TGI: > 225 µM
NCI-H226 lung
  TGI: 224 µM
NCI-H23 lung
  TGI: > 225 µM
KM12 colon
  TGI: > 225 µM
SK-MEL-5 melanoma
  TGI: > 225 µM
NCI-H522 lung
  TGI: > 225 µM
RXF 393 renal
  TGI: > 225 µM
U251 CNS
  TGI: > 225 µM
SN12K1 renal
  TGI: > 225 µM
OVCAR-8 ovarian
  TGI: > 225 µM
MALME-3M melanoma
  TGI: > 225 µM
SNB-75 CNS
  TGI: > 225 µM

## O=C[C@]12CC=C3OC4OC5(CCCCC5)OC4[C@H]3[C@H]1C(=O)C=CC2=O (stereo not given in full)
HCT-116 colon
  TGI: 38.4 µM
OVCAR-5 ovarian
  TGI: > 100 µM
ACHN renal
  TGI: 58.5 µM
CAKI-1 renal
  TGI: 74.6 µM
MOLT-4 leukemia
  TGI: 15.3 µM
A549 NSCLC
  TGI: > 100 µM
HOP-62 NSCLC
  TGI: > 100 µM
DMS 273 small cell lung
  TGI: > 100 µM
DMS 114 small cell lung
  TGI: 50.8 µM
CCRF-CEM leukemia
  TGI: 9.3 µM
HCT-15 colon
  TGI: 43.4 µM
HT29 colon
  TGI: > 100 µM
HL-60(TB) leukemia
  TGI: 2.78 µM
RXF-631 renal
  TGI: > 100 µM
TK-10 renal
  TGI: 81.3 µM
SF-295 CNS
  TGI: > 100 µM
NCI-H460 lung
  TGI: 58.7 µM
DLD-1 colon
  TGI: 38.9 µM
OVCAR-4 ovarian
  TGI: 31.7 µM
XF 498 CNS
  TGI: 27.8 µM
UACC-257 melanoma
  TGI: 45.3 µM
SF-539 CNS
  TGI: 13.4 µM
SW-620 colon
  TGI: 38.9 µM
SNB-78 CNS
  TGI: 29.4 µM
EKVX NSCLC
  TGI: 39.8 µM
M19-MEL melanoma
  TGI: 54.5 µM
SNB-19 CNS
  TGI: > 100 µM
LXFL 529 NSCLC
  TGI: 39.8 µM
SF-268 CNS
  TGI: 89 µM
HCC-2998 colon
  TGI: 90.8 µM
SN12C renal
  TGI: > 100 µM
M14 melanoma
  TGI: 38.7 µM
SK-MEL-2 melanoma
  TGI: > 100 µM
786-0 renal
  TGI: 21.5 µM
SR leukemia
  TGI: 7.93 µM
SK-MEL-28 melanoma
  TGI: 96.3 µM
UO-31 renal
  TGI: 40.8 µM
UACC-62 melanoma
  TGI: 52.6 µM
SK-OV-3 ovarian
  TGI: > 100 µM
A498 renal
  TGI: > 100 µM
NCI-H226 lung
  TGI: > 100 µM
KM12 colon
  TGI: > 100 µM
SK-MEL-5 melanoma
  TGI: 35.5 µM
NCI-H522 lung
  TGI: 22.1 µM
RXF 393 renal
  TGI: 25.9 µM
U251 CNS
  TGI: 64.6 µM
OVCAR-8 ovarian
  TGI: 34.6 µM
MALME-3M melanoma
  TGI: 34.4 µM
